Results: patent publication US10206394B2, “Herbicidal compounds” (Syngenta Participations AG, priority 2014, dated 2019)
Read-outs that look alike come from different tables or passages of the source.

Tests used:
Test in all cases: Glasshouse assay for herbicidal activity (pre- and post-emergence), percentage phytotoxicity
Type in all cases: in vivo
Lolium perenne (LOLPE) = details: Lolium perenne
Experimental: (§1) Test—Glasshouse Assay for Herbicidal Activity
(§2) Seeds of a variety of monocotyledonous and dicotyledonous test plants are sown in standard soil in pots. The plants are cultivated for one day (for pre-emergence (PRE)) or for about 12 days (for post-emergence (POST)) under controlled conditions in a glasshouse (warm climate species at 24/18° C., cool climate species at 20/16° C., both at day/night; 16 hours light; 65% humidity).
(§3) The test plants are then grown on, in a glasshouse (greenhouse) under controlled conditions (warm climate species at 24/18° C., cool climate species at 20/16° C., both at day/night; 16 hours light; 65% humidity) and are watered twice daily. 15 days after application of the test herbicide (15 DAA) (for post-emergence), and 20 days after application of the test herbicide (20 DAA) (for pre-emergence), the test plants are evaluated visually, and an assessed percentage phytotoxicity score is given for each herbicidal application on each plant species (with 100%=total damage to plant; 0%=no damage to plant).
(§4) The plant species tested are as follows: Alopecurus myosuroides (ALOMY), Avena fatua (AVEFA), Lolium perenne (LOLPE), Echinochloa crus-galli (ECHCG).

Avena fatua (AVEFA) = details: Avena fatua
Experimental: as §1, §2, §3, §4

[1] = system: Alopecurus myosuroides (ALOMY); details: Alopecurus myosuroides
Experimental: as §1, §2, §3, §4

[2] = system: Echinochloa crus-galli (ECHCG); details: Echinochloa crus-galli
Experimental: as §1, §2, §3, §4

[3] = post-emergence, 360 h, Rate 250 g/ha, post-emergence, assessed visually 15 DAA, 100%=total damage, 0%=no damage, read-out: Post-emergence herbicidal activity (percentage phytotoxicity) LOLPE POST
[4] = pre-emergence, 480 h, Rate 250 g/ha, pre-emergence, assessed visually 20 DAA, 100%=total damage, 0%=no damage, read-out: Pre-emergence herbicidal activity (percentage phytotoxicity) LOLPE PRE
[5] = post-emergence, 360 h, Rate 250 g/ha, post-emergence, assessed visually 15 DAA, 100%=total damage, 0%=no damage, read-out: Post-emergence herbicidal activity (percentage phytotoxicity) AVEFA POST
[6] = pre-emergence, 480 h, Rate 250 g/ha, pre-emergence, assessed visually 20 DAA, 100%=total damage, 0%=no damage, read-out: Pre-emergence herbicidal activity (percentage phytotoxicity) AVEFA PRE
[7] = post-emergence, 360 h, Rate 250 g/ha, post-emergence, assessed visually 15 DAA, 100%=total damage, 0%=no damage, read-out: Post-emergence herbicidal activity (percentage phytotoxicity) ALOMY POST
[8] = pre-emergence, 480 h, Rate 250 g/ha, pre-emergence, assessed visually 20 DAA, 100%=total damage, 0%=no damage, read-out: Pre-emergence herbicidal activity (percentage phytotoxicity) ALOMY PRE
[9] = post-emergence, 360 h, Rate 250 g/ha, post-emergence, assessed visually 15 DAA, 100%=total damage, 0%=no damage, read-out: Post-emergence herbicidal activity (percentage phytotoxicity) ECHCG POST
[10] = pre-emergence, 480 h, Rate 250 g/ha, pre-emergence, assessed visually 20 DAA, 100%=total damage, 0%=no damage, read-out: Pre-emergence herbicidal activity (percentage phytotoxicity) ECHCG PRE
[11] = post-emergence, 360 h, 250 g/ha, post-emergence, 15 DAA, visual assessment (100%=total damage, 0%=no damage), read-out: Post-emergence herbicidal activity (percentage phytotoxicity) LOLPE POST
[12] = pre-emergence, 480 h, 250 g/ha, pre-emergence, 20 DAA, visual assessment (100%=total damage, 0%=no damage), read-out: Pre-emergence herbicidal activity (percentage phytotoxicity) LOLPE PRE
[13] = post-emergence, 360 h, 250 g/ha, post-emergence, 15 DAA, visual assessment (100%=total damage, 0%=no damage), read-out: Post-emergence herbicidal activity (percentage phytotoxicity) AVEFA POST
[14] = pre-emergence, 480 h, 250 g/ha, pre-emergence, 20 DAA, visual assessment (100%=total damage, 0%=no damage), read-out: Pre-emergence herbicidal activity (percentage phytotoxicity) AVEFA PRE
[15] = post-emergence, 360 h, 250 g/ha, post-emergence, 15 DAA, visual assessment (100%=total damage, 0%=no damage), read-out: Post-emergence herbicidal activity (percentage phytotoxicity) ALOMY POST
[16] = pre-emergence, 480 h, 250 g/ha, pre-emergence, 20 DAA, visual assessment (100%=total damage, 0%=no damage), read-out: Pre-emergence herbicidal activity (percentage phytotoxicity) ALOMY PRE
[17] = post-emergence, 360 h, 250 g/ha, post-emergence, 15 DAA, visual assessment (100%=total damage, 0%=no damage), read-out: Post-emergence herbicidal activity (percentage phytotoxicity) ECHCG POST
[18] = pre-emergence, 480 h, 250 g/ha, pre-emergence, 20 DAA, visual assessment (100%=total damage, 0%=no damage), read-out: Pre-emergence herbicidal activity (percentage phytotoxicity) ECHCG PRE

SMILES | pest or weed control at 250 g/ha (Lolium perenne (LOLPE); [3]) [%] | pest or weed control at 250 g/ha (Lolium perenne (LOLPE); [4]) [%] | pest or weed control at 250 g/ha (Avena fatua (AVEFA); [5]) [%] | pest or weed control at 250 g/ha (Avena fatua (AVEFA); [6]) [%] | pest or weed control at 250 g/ha [1, 7] [%] | pest or weed control at 250 g/ha [1, 8] [%] | pest or weed control at 250 g/ha [2, 9] [%] | pest or weed control at 250 g/ha [2, 10] [%] | pest or weed control at 250 g/ha (Lolium perenne (LOLPE); [11]) [%] | pest or weed control at 250 g/ha (Lolium perenne (LOLPE); [12]) [%] | pest or weed control at 250 g/ha (Avena fatua (AVEFA); [13]) [%] | pest or weed control at 250 g/ha (Avena fatua (AVEFA); [14]) [%] | pest or weed control at 250 g/ha [1, 15] [%] | pest or weed control at 250 g/ha [1, 16] [%] | pest or weed control at 250 g/ha [2, 17] [%] | pest or weed control at 250 g/ha [2, 18] [%]
Cc1cc(-c2ncc(F)cn2)cc(C)c1C1C(=O)CC(CC(=O)NCc2ncccc2Cl)C1=O (stereo not shown) [Compound A140] | 90 | 100 | 100 | 100 | 100 | 90 | 100 | 100 |  |  |  |  |  |  |  | 
C/C=C/c1cc(C)c(C2C(=O)CC(CC(N)=O)C2=O)c(CC)c1 (stereo not shown) [Compound B153] |  |  |  |  |  |  |  |  | 100 | 80 | 100 | 70 | 100 | 90 | 100 | 90
CCC(C)(C)NC(=O)CC1CC(=O)C(c2c(C)cc(-c3ncc(Cl)cc3F)cc2C)C1=O (stereo not shown) [Compound A46] | 100 | 90 | 100 | 90 | 100 | 100 | 100 | 100 |  |  |  |  |  |  |  | 
Cc1cc(C)c(C2C(=O)CC(CC(=O)NCc3cccc(C#N)c3)C2=O)c(C)c1 (stereo not shown) [Compound B9] |  |  |  |  |  |  |  |  | 70 | 90 | 70 | 70 | 70 | 70 | 70 | 100
Cc1cc(-c2ncc(Cl)cn2)cc(C)c1C1C(=O)C[C@H](CC(=O)NC(C)(C)C)C1=O (stereo partly shown) [Compound B50] |  |  |  |  |  |  |  |  | 100 | 100 | 90 | 70 | 100 | 90 | 100 | 100
